# Measured values from publication PMC13534789, “Molecular Glue Degraders Enhance CAPRIN1‐Dependent Lysosomal Degradation of APP and Reduce Amyloid β in Alzheimer's Disease” (Advanced Science, 2026).
# Where two headings read alike, the source gives them in different places.
# What was measured:
# [1] = tested on: APP trafficking through the endosomal‐lysosomal pathway; assay: Confocal colocalization of APP / CAPRIN1 with organelle markers; type: cell-based, human; settings: for APP–LAMP1 colocalization: AD iPSC-Ns
# Procedure: Cells were grown on glass cover slips coated with 1% Matrigel and treated with drugs. Cells were washed, fixed, permeabilized, blocked, and incubated in primary antibodies diluted in blocking solution (1% v/v BSA solution/5% Goat serum in PBS containing 0.1% Triton X‐100) overnight at 4°C. The cells were washed three times with PBS and incubated in secondary antibodies in a blocking solution for 1 h at room temperature, then washed with PBS, followed by HOECHST staining (Invitrogen) for 5 min, and washed with PBS. The glass coverslips were put on a slide‐in mounting medium ([…]), and the edges were sealed with coverslip sealant (BIOTIUM). Image data were captured and processed with a confocal microscope system (Olympus Fluoview FV1000 or Leica DIVE) and the ImageJ program. For 3D organoids staining, organoids were fixed in 10% formalin overnight at room temperature, followed by incubation in 30% sucrose solution overnight at room temperature, embedded in optimal cutting temperature compound (OCT, FisherScientific), and kept at ‐80°C overnight. Frozen samples were sectioned at 10 µm using a cryostat (Leica) and mounted on microscope slides (Fisherbrand superfrost plus, FisherScientific). Before immunolabeling, sections were rinsed in PBS for 5 min, permeabilized for 30 min in PBS containing 0.3% Triton‐X 100, blocked for 1 h in PBS containing 5% BSA and 0.1% Triton‐X 100, and incubated with primary antibodies diluted in the same blocking solution. Then, secondary staining, mounting, and imaging were followed.
# ImageJ (Fiji) program (NIH, Bethesda, MD, USA) was used o analyze images. Pearson's correlation coefficients were calculated with the JACoP plugin from two channels (BIOP). For colocalization/trafficking analysis with organelles in iPSC‐Ns, HEK293 cells, and 3D organoids, APP or CAPRIN1 with organelles signals were segmented using a trainable weka segmentation plugin in Fiji as previously described. Colocalized areas were calculated in the image calculator tool ([…] function) to get an overlayed area for the segmented signals, followed by using the analyze particle tool in Fiji to determine by > 1‐pixel overlapping of the segmented signal. To determine the fluorescence intensity, the corrected total cell fluorescence (CTCF) was used using the formula: CTCF = Integrated Density—(Area of selected cell x Mean fluorescence of background readings), as described previously. Bright‐field images of immunoperoxidase‐stained and Thioflavin S‐stained brain sections were exported as 16‐bit RGB TIFF files and analyzed using ImageJ (Fiji), following previously established protocols. To isolate the DAB signal for quantification, color deconvolution was performed using the “H DAB” setting in the Color Deconvolution plugin in ImageJ. The resulting “Colour_2” image, corresponding to the DAB chromogen, was converted to 8‐bit grayscale for further analysis. Manual thresholding was applied to the DAB channel using the threshold adjustment tool in ImageJ. […] Regions of interest (ROIs), specifically the subiculum, hippocampus, and cortex, were manually delineated based on anatomical landmarks and saved using the ROI Manager. For each ROI, the DAB‐positive area was quantified using the Analyze Particles plugin with default particle size settings. The percentage of DAB‐positive area was calculated as the ratio of the DAB‐positive area to the total area of each ROI.
# Aβ42 = Aβ42 ELISA of conditioned media, iPSC-derived neurons; type: cell-based, human; settings: for IC50: Homo sapiens, Neuron
# From the text: The human iPSC SAD2.3 (UCSD234i‐SAD2‐3) and HVRDi002A were purchased from Wicell, UKBi011A from the European Bank for induced pluripotent stem cells, Sigma, AG25367, AG25370, AG27606, AG27608, AG27609, AG28049, AG28262, and AG27602 from Coriell. All iPSCs were maintained and expanded on Matrigel (Growth factor reduced Matrigel matrix, Corning) in mTeSR1 complete medium (mTeSR1 medium + 5X supplement, Stem Cell Technologies). For iPSC‐Ns transgene delivery, each iPSC line was transduced with lentiviral particles for pLVX‐UbC‐rtTA‐Ngn2:2A:Ascl1 […]), followed by selection in the presence of puromycin ([…], Gibco). To initiate conversion, iPSCs were differentiated into neurons using the established Ascl1/Mash1 (33) and Neurogenin 2 (Ngn2) (34) protocols.
# iPSC‐Ns or HEK‐APP695WT were treated with drugs, and secreted Aβ42 peptides inculture soup were quantified using the Human Amyloid β1‐42 human ELISA kit (Thermo Fisher) according to the manufacturer's protocol. Mouse brain extraction was performed as previously described, with minor modifications. Mouse brain tissues were homogenized at a 1:10 weight‐to‐volume ratio in Tris‐buffered saline (TBS; 50 mM Tris, pH 7.4, 150 mM NaCl) supplemented with 2 mM EDTA and protease inhibitors. TBS‐homogenized brains were centrifuged for 1 h at 16 000 g. To extract total Aβ, including insoluble fractions, formic acid was added to a final concentration of 70%, and the samples were thoroughly mixed by pipetting. Homogenates were centrifuged at 100 000 g for 1 h at 4°C, and the resulting supernatants were collected. Prior to quantification, formic acid‐containing samples were neutralized with 1 M Tris base (pH 11). Aβ40 and Aβ42 levels were measured using human‐specific ELISA kits (Invitrogen) and normalized to total protein concentrations determined by the BCA assay (Thermo Scientific). For Aβ quantification in 3D organoids, 3D organoids’ processing and ELISA analysis were performed with minor modifications from previously described protocols. Briefly, cerebral organoids were lysed in RIPA buffer supplemented with protease and phosphatase inhibitor cocktails (Sigma), followed by sonication and incubation on ice for 60 min. Lysates were centrifuged at 13 000 rpm for 1 h at 4°C, and the supernatants were collected as the RIPA‐soluble fraction. The remaining pellets were resuspended in 70% formic acid, sonicated, and subsequently neutralized with Tris buffer to obtain the formic acid‐solubilized fraction. Aβ42 levels in both fractions were measured using human‐specific ELISA kits (Thermo Fisher) according to the manufacturer's instructions. Formic acid extracts were appropriately neutralized prior to ELISA. Aβ levels were normalized to total protein concentration determined by BCA assay.
# Kinetic solubility assay = type: physicochemical; settings: for solubility at 24 h: aqueous buffer, kinetic from dmso stock, phosphate buffer pH 7.4, 24 h, room temperature, LC-MS, read-out: Solubility PBS
# Procedure: 10 µL of 10 mM DMSO stock solution of test and control compounds was added to 990 µL phosphate buffer with pH 7.4. […] Samples were centrifuged, and the supernatant was transferred into a filter plate. Then, the filtrates were quantified by an LC‐MS system to get solubility results.
# [2] = 120 h, AG27606 neurons, 5-day treatment, ELISA, normalized to DMSO, read-out: IC50, Aβ42 dose–response
Compound,"APP–LAMP1 colocalization ([1]; 10 µM, 24 h)","APP colocalization with EEA1, Rab7 and LAMP1 ([1]; AG27606-Ns, 10 µM, 0, 3 or 7 h)","CAPRIN1 colocalization with Rab7 and LAMP1 ([1]; AG27606-Ns, 10 µM, 0, 3 or 7 h)","Aβ42 secretion across iPSC-Ns from sAD, fAD and non-AD donors (Aβ42; 10 µM, 72 h)",IC50 (Aβ42; [2]) [nM],"IC50 (Aβ42; 120 h, sAD2.3 neurons, 5 days treatment, ELISA, read-out: IC50, relative Aβ42 levels in conditioned media) [nM]","IC50 (Aβ42; SAD2.3-Ns and AG27606-Ns, read-out: IC50 values, Aβ42 secretion) [nM]","Aβ42 levels in culture media (Aβ42; sAD2.3 neurons, 10 µM, 72 h)","Aqueous solubility by LC-MS, in words (Kinetic solubility assay)",solubility at 24 h (Kinetic solubility assay) [µg/mL],"Colocalization of APP and CAPRIN1 with GGA1 ([1]; AG27606 neurons, 10 µM, 24 h)","Colocalization of APP and CAPRIN1 with SorLA ([1]; AG27606 neurons, 10 µM, 24 h)"
N#Cc1cccc(NC(=O)Nc2nc3ccc(C(=O)N4CCOCC4)cc3s2)c1 [compound 0043],increased APP–LAMP1 colocalization,significantly increased APP colocalization with all three markers,increase its colocalization with both markers,effectively lowered Aβ42 secretion,2100,1800,1800 to 2100,reduced Aβ42 levels,poor aqueous solubility,0.06,,
COc1cccc(NC(=O)Nc2nc3ccc(C(=O)N4CCOCC4)cc3s2)c1 [compound 0152],increased APP–LAMP1 colocalization,,,consistently reduced both APP and Aβ42 levels,900,,,,significantly improved aqueous solubility,0.4,enhanced the colocalization of both APP and CAPRIN1 with GGA1,reduced the colocalization of both APP and CAPRIN1 with SorLA
